Measurements reported in US6476034B2, “Antiviral azaindole derivatives” (priority 2000, dated 2002).

Tested on: single-round infectious HIV-1 reporter virus
Assay: microbe, parasite or virus in culture
Assay type: cell-based
Conditions: for EC50: Human immunodeficiency virus 1, HeLa-CD4/CCR5; for inhibition at 10 µM: Human immunodeficiency virus 1, HeLa-CD4/CCR5, 72 h, read-out: Average % inhibition at or <10 μM; for Average % inhibition at or <10 μM: HeLa CD4 CCR5 cells, luciferase expression 3 days (72 hours) after infection, compounds tested below 10 μM: % inhibition at 10 μM extrapolated with XLfit, mean of at least two experiments

SMILES	EC50 [nM]	inhibition at 10 µM [%]	Average % inhibition at or <10 μM [%]
C[C@@H]1CN(C(=O)c2ccccc2)[C@@H](C)CN1C(=O)C(=O)c1c[nH]c2ncccc12 (relative stereo) [Compound 5i, trans-N-(benzoyl)-2,5-dimethyl-N′-[(7-azaindol-3-yl)-oxoacetyl]-piperazine]	< 1000	89	–
C[C@@H]1CN(C(=O)c2ccccc2)CCN1C(=O)C(=O)c1c[nH]c2ncccc12 [Compound 5a, (R)-N-(benzoyl)-3-methyl-N′-[(7-azaindol-3-yl)-oxoacetyl]-piperazine]	< 1000	> 99	–
CC(C)C1CN(C(=O)c2ccccc2)CCN1C(=O)C(=O)c1c[nH]c2ncccc12 (stereo not shown) [Compound 5ab, N-(benzoyl)-3-iso-Propyl-N′-[(7-azaindol-3-yl)-oxoacetyl]-piperazine]	> 500	–	–
CC(C)C1CN(C(=O)C(=O)c2c[nH]c3ncccc23)CCN1C(=O)c1ccccc1 (stereo not shown) [Compound 5ac, N-(benzoyl)-2-iso-Propyl-N′-[(7-azaindol-3-yl)-oxoacetyl]-piperazine]	> 400	–	–
CC(C)C1CN(C(=O)c2c[nH]c3ncccc23)CCN1C(=O)c1ccccc1 (stereo not shown) [Compound 5ad, N-(benzoyl)-2-iso-Propyl-N′-[(7-azaindol-3-yl)-carbonyl]-piperazine]	> 500	–	–
C[C@@H]1CN(C(=O)c2ccccc2)CCN1C(=O)C(=O)c1c[nH]c2nccc(O)c12 [Compound 5ah, (R)-N-(benzoyl)-3-methyl-N′-[(4-hydroxyl-7-azaindol-3-yl)-oxoacetyl]-piperazine]	> 5000	–	–
CC1CN(C(=O)c2ccccc2)CCN1C(=O)C(=O)c1c[nH]c2ncccc12 (stereo not shown) [Compound 5ai, N-(benzoyl)-3-methyl-N′-[(7-azaindol-3-yl)-oxoacetyl]-piperazine]	< 1000	–	–
Cc1cc(Cl)nc2c(C(=O)C(=O)N3CCN(C(=O)c4ccccc4)C[C@H]3C)c[nH]c12 [Compound 5ak, (R)-N-(benzoyl)-3-Methyl-N′-[(5-Chloro-7-methyl-4-azaindol-3-yl)-oxoacetyl]-piperazine]	< 1000	–	–
COc1cnc(Cl)c2[nH]cc(C(=O)C(=O)N3CCN(C(=O)c4ccccc4)CC3)c12 [Compound 5an, N-(benzoyl)-N′-[(7-chloro-4-methoxy-6-azaindol-3-yl)-oxoacetyl]piperazine]	< 1000	–	–
COc1ncc(OC)c2c(C(=O)C(=O)N3CCN(C(=O)c4ccccc4)CC3)c[nH]c12 [Compound 5ao, N-(benzoyl)-N′-[(4,7-dimethoxy-6-azaindol-3-yl)-oxoacetyl]piperazine]	< 1000	–	–
COc1ncc(OC)c2c(C(=O)C(=O)N3CCN(C(=O)c4ccccc4)C[C@H]3C)c[nH]c12 [Compound 5ap, ®-N-(benzoyl)-3-methyl-N′-[(4,7-dimethoxy-6-azaindol-3-yl)-oxoacetyl]piperazine]	< 1000	–	–
CCC1CN(C(=O)C(=O)c2c[nH]c3ncccc23)CCN1C(=O)c1ccccc1 (stereo not shown) [Compound 5b, N-(benzoyl)-2-ethyl-N′-[(7-azaindol-3-yl)-oxoacetyl]-piperazine]	< 1000	90	–
CCC1CN(C(=O)c2c[nH]c3ncccc23)CCN1C(=O)c1ccccc1 (stereo not shown) [Compound 5c, N-(benzoyl)-2-ethyl-N′-[(7-azaindol-3-yl)-carbonyl]-piperazine]	< 1000	80	–
O=C(C(=O)N1CCN(C(=O)c2ccccc2)CC1)c1c[nH]c2ncccc12 [Compound 5d, N-(benzoyl)-N′-[(7-azaindol-3-yl)-oxoacetyl]-piperazine]	< 1000	98	–
CC1CN(C(=O)C(=O)c2c[nH]c3ncccc23)CCN1C(=O)c1ccccc1 (stereo not shown) [Compound 5e, N-(benzoyl)-2-methyl-N′-[(7-azaindol-3-yl)-oxoacetyl]-piperazine]	< 1000	80	–
C[C@H]1CN(C(=O)c2ccccc2)CCN1C(=O)C(=O)c1c[nH]c2ncccc12 [Compound 5f, (S)-N-(benzoyl)-3-methyl-N′-[(7-azaindol-3-yl)-oxoacetyl]-piperazine]	< 1000	80	–
CCC1CN(C(=O)c2ccccc2)CCN1C(=O)C(=O)c1c[nH]c2ncccc12 (stereo not shown) [Compound 5g, N-(benzoyl)-3-ethyl-N′-[(7-azaindol-3-yl)-oxoacetyl]-piperazine]	< 1000	70	–
CC1(C)CN(C(=O)c2ccccc2)CCN1C(=O)C(=O)c1c[nH]c2ncccc12 [Compound 5h, N-(benzoyl)-3,3-dimethyl-N′-[(7-azaindol-3-yl)-oxoacetyl]-piperazine]	1000 to 5000	80	–
C[C@@H]1CN(c2ccccn2)CCN1C(=O)C(=O)c1c[nH]c2ncccc12 [Compound 5k, (R)-N-(pyridin-2-yl)-3-methyl/N′-[(7-azaindol-3-yl)-oxoacetyl]-piperazine]	–	–	>99

SMILES	EC50 [nM]	inhibition at 10 µM [%]	Average % inhibition at or <10 μM [%]
C[C@@H]1CN(c2ccc(Br)o2)CCN1C(=O)C(=O)c1c[nH]c2ncccc12 [Compound 5l, (R)-N-(5-bromo-furan-2-yl)-3-methyl-N′-[(7-azaindol-3-yl)-oxoacetyl]-piperazine]	< 1000	> 99	–
C[C@@H]1CN(C(=O)c2ccccc2)CCN1C(=O)C(=O)c1c[nH]c2ccncc12 [Compound 5m, (R)-N-(benzoyl)-3-methyl-N′-[(5-azaindol-3-yl)-oxoacetyl]-piperazine]	> 500	60	–
COc1ccnc2[nH]cc(C(=O)C(=O)N3CCN(C(=O)c4c(F)c(F)c(N=[N+]=[N-])c(F)c4F)C[C@H]3C)c12 [Compound 5n, (R)-N-(4-azido-2,3,5,6-tetra-fluorobenzoyl)-3-methyl-N′-[(4-methoxy-7-azaindol-3-yl)-oxoacetyl]-piperazine]	< 1000	93	–
O=C(C(=O)N1CCN(C(=O)c2ccccc2)CC1)c1c[nH]c2cnccc12 [Compound 5p, N-(benzoyl)-N′-[(6-azaindol-3-yl)-oxoacetyl]-piperazine]	> 500	40	–
CC1CN(C(=O)c2ccccc2)CCN1C(=O)C(=O)c1c[nH]c2cnccc12 (stereo not shown) [Compound 5q, N-(benzoyl)-3-Methyl-N′[(6-azaindol-3-yl)-oxoacetyl]-piperazine]	< 1000	97	–
C[C@@H]1CN(C(=O)c2ccccc2)CCN1C(=O)C(=O)c1c[nH]c2cnccc12 [Compound 5r, (R)-N-(benzoyl)-3-Methyl-N′-[(6-azaindol-3-yl)-oxoacetyl]-piperazine]	< 1000	> 99	–
C[C@H]1CN(C(=O)c2ccccc2)CCN1C(=O)C(=O)c1c[nH]c2cnccc12 [Compound 5s, (S)-N-(benzoyl)-3-Methyl-N′-[(6-azaindol-3-yl)-oxoacetyl]-piperazine]	> 500	56	–
O=C(C(=O)N1CCN(C(=O)c2ccccc2)CC1)c1c[nH]c2c(Cl)nccc12 [Compound 5t, N-(benzoyl)-N′-[(7-Chloro-6-azaindol-3-yl)-oxoacetyl]-piperazine]	< 1000	> 99	–
C[C@@H]1CN(C(=O)c2ccccc2)CCN1C(=O)C(=O)c1c[nH]c2c(Cl)nccc12 [Compound 5u, (R)-N-(benzoyl)-3-Methyl-N′-[(7-Chloro-6-azaindol-3-yl)-oxoacetyl]-piperazine]	< 1000	99	–
COc1nccc2c(C(=O)C(=O)N3CCN(C(=O)c4ccccc4)C[C@H]3C)c[nH]c12 [Compound 5v, (R)-N-(benzoyl)-3-Methyl-N′-[(7-Methoxy-6-azaindol-3-yl)-oxoacetyl]-piperazine]	< 1000	> 99	–
C[C@@H]1CN(C(=O)c2ccccc2)CCN1C(=O)C(=O)c1c[nH]c2cccnc12 [Compound 5w, (R)-N-(benzoyl)-3-Methyl-N′-[(4-azaindol-3-yl)-oxoacetyl]-piperazine]	< 1000	98	–
Cc1ccnc2c(C(=O)C(=O)N3CCN(C(=O)c4ccccc4)C[C@H]3C)c[nH]c12 [Compound 5x, (R)-N-(benzoyl)-3-Methyl-N′-[(7-Methyl-4-azaindol-3-yl)-oxoacetyl]-piperazine]	< 1000	99	–
C[C@@H]1CN(C(=O)c2ccccc2)CCN1C(=O)C(=O)c1c[nH]c2c(Cl)ccnc12 [Compound 5y, (R)-N-(benzoyl)-3-Methyl-N′-[(7-Chloro-4-azaindol-3-yl)-oxoacetyl]-piperazine]	< 1000	> 99	–
COc1ccnc2c(C(=O)C(=O)N3CCN(C(=O)c4ccccc4)C[C@H]3C)cn(C)c12 [Compound 5z, (R)-N-(benzoyl)-3-Methyl-N′-[(7-Methoxy-1-methyl-4-azaindol-3-yl)-oxoacetyl]-piperazine]	< 1000	97	–
C[C@@H]1CN(C(=O)c2ccccc2)CCN1C(=O)C(=O)c1c[nH]c2c1ccc[n+]2[O-] [Compound 8a, (R)-N-(benzoyl)-3-methyl-N′-[(7-oxide-7-azaindol-3-yl)-oxoacetyl]-piperazine]	–	–	90
C[C@@H]1CN(C(=O)c2ccccc2)CCN1C(=O)C(=O)c1c[nH]c2c[n+]([O-])ccc12 [Compound 8b, (R)-N-(benzoyl)-3-methyl-N′-[(6-oxide-6-azaindol-3-yl)-oxoacetyl]-piperazine]	–	–	91
C[C@@H]1CN(C(=O)c2ccccc2)CCN1C(=O)C(=O)c1c[nH]c2nccc(Cl)c12 [Compound 9a, (R)-N-(benzoyl)-3-methyl-N′-[(4-chloro-7-azaindol-3-yl)-oxoacetyl]-piperazine]	< 1000	> 99	–
C[C@@H]1CN(C(=O)c2ccccc2)CCN1C(=O)C(=O)c1c[nH]c2nc(Cl)ccc12 [Compound 9b, (R)-N-(benzoyl)-3-methyl-N′-[(6-chloro-7-azaindol-3-yl)-oxoacetyl]-piperazine]	< 1000	> 99	–
C[C@@H]1CN(C(=O)c2ccccc2)CCN1C(=O)C(=O)c1c[nH]c2nc(F)cc([N+](=O)[O-])c12 [Compound 10a, (R)-N-(benzoyl)-3-methyl-N′-[(4-nitro-6-fluoro-7-azaindol-3-yl)-oxoacetyl]-piperazine]	< 1000	> 99	–
